What is called inhibition is the drop in the measured response relative to a control, in per cent. As a reminder, the IC50 is the midpoint of a concentration-inhibition curve.

Structures can show the parent of a compound that is named as a salt. Where two headings read alike, the source gives them in different places.

Here are results for 20 compounds from patent US5902812A, “Pharmaceutical piperazine compounds” (Xenova Limited, priority 1994, dated 1999).

This experiment addresses PAI-1 (Homo sapiens, UniProt P05121). Put plainly: biochemical. The following applies: for inhibition at 20 µM / inhibition at 6.25 µM / inhibition at 12.5 µM / inhibition at 25 µM / inhibition at 50 µM / inhibition at 100 µM: read-out: Degree of inhibition in PAI chromogenic substrate assay.
Setting [1] is: PAI chromogenic substrate assay, read-out: IC50.

Chain of PAI-1 (P05121 24-402): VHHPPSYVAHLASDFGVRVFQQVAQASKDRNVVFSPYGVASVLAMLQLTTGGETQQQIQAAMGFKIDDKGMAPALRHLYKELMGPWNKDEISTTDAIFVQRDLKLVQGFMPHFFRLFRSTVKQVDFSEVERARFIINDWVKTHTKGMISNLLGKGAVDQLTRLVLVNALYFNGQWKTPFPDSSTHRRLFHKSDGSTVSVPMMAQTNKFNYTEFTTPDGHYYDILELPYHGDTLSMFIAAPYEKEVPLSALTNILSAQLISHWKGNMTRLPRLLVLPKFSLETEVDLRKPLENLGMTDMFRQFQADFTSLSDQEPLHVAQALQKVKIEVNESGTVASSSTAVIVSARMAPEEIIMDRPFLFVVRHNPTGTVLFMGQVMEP
Experimental: In this assay, a compound is incubated with PAI-1 prior to addition to the tPA assay system. Inhibition of PAI-1 results in the production of plasmin from plasminogen. In turn, plasmin cleaves the chromogenic substrate S2251 (Kabi Vitrum) producing pNA (p-nitroaniline) which is detected spectrophotometrically at 405 nm (K. Nilsson et al, Fibrinolysis (1987) 1, 163-168).
Compounds of formula (A) were tested in a PAI chromogenic substrate assay. In the assay (K.Nilsson, Fibrinolysis (1987) 1, 163-168) each compound was incubated with PAI-1 prior to addition to the tPA assay system. […] In turn, the plasmin cleaved the chromogenic substrate S2251 (Kabi-Vitrum) producing pNA (p-nitroaniline) which was detected spectrophotometrically at 405 nm.

With `CN(C)CCOc1ccc(/C=c2\[nH]c(=O)/c(=C/c3ccccc3)[nH]c2=O)cc1` [Compound 1954, (3Z,6Z)-6-Benzylidene-3-(4-(2-dimethylaminoethoxy)benzylidene)-2,5-piperazinedione], the Degree of inhibition in PAI chromogenic substrate assay by setting is: (6.25 μM) 37%; (12.5 μM) 57%; (25 μM) 67%; (50 μM) 43%; (100 μM) 16%.
For `CN(C)CCOc1ccc(/C=c2\[nH]c(=O)/c(=C/c3ccccc3)[nH]c2=O)c(Cl)c1` [Compound 1951, (3Z,6Z)-3-Benzylidene-6-(2-chloro-4-(2-dimethylaminoethoxy)benzylidene)-2,5-piperazinedione], in that order: 0%, 1%, 2%, 23% and 43%.
In the case of `CN(C)CCCOc1ccc(/C=c2\[nH]c(=O)/c(=C/c3ccc(C(=O)NCCCc4ccccc4)cc3)[nH]c2=O)cc1` [Compound 5346, N-(3-Phenylpropyl)-4-((3Z,6Z)-6-(4-(3-Dimethylaminopropoxy)benzylidene)-2,5-dioxo-3-piperazinylidene)methylbenzamide], the inhibition at 20 µM (20 μM (third part of Table 1)) came out at 15%.
Consider `CCCCCCC(=O)Oc1ccc(/C=c2\[nH]c(=O)/c(=C/c3ccc(OC)cc3)[nH]c2=O)cc1` [Compound 1887, (3Z,6Z)-3-(4-Heptanoyloxybenzylidene)-6-(4-methoxybenzylidene)-2,5-piperazinedione], for which the inhibition at 6.25 µM (6.25 μM) turned out to be 0%. In addition, under “12.5 μM”, the inhibition at 12.5 µM came out at 5%. Moreover, under “25 μM”, the inhibition at 25 µM turned out to be 24%. Moreover, the inhibition at 50 µM (50 μM) is 46%. Besides, the inhibition at 100 µM (100 μM) was 83%.
Regarding `CN(C)CCCN(CCCN(C)C)Cc1ccc(/C=c2\[nH]c(=O)/c(=C/c3ccccc3)[nH]c2=O)cc1` [Compound 1981, (3Z,6Z)-3-Benzylidene-6-(4-bis(3-dimethylaminopropyl)aminomethylbenzylidene)-2,5-piperazinedione], the Degree of inhibition in PAI chromogenic substrate assay (12.5 μM) was 7%, the Degree of inhibition in PAI chromogenic substrate assay (25 μM) stood at 26%, the Degree of inhibition in PAI chromogenic substrate assay (50 μM) is 41% and the Degree of inhibition in PAI chromogenic substrate assay (100 μM) worked out at 51%.
Regarding `CN(C)CCOc1ccc(/C=c2\[nH]c(=O)/c(=C/c3ccc(F)cc3F)[nH]c2=O)cc1` [Compound 1977, (3Z,6Z)-3-(2,4-Difluorobenzylidene)-6-(4-(2-dimethylaminoethoxy)benzylidene)-2,5-piperazinedione], for the setting “6.25 μM”, the inhibition at 6.25 µM turned out to be 0%. Further, the inhibition at 12.5 µM (12.5 μM) was found to be 20%. Moreover, the inhibition at 25 µM (25 μM) came to 47%. The inhibition at 50 µM (50 μM) was 47%. Moreover, the inhibition at 100 µM (100 μM) stood at 54%.
Compound `CN(C)CCCOc1ccc(/C=c2\[nH]c(=O)/c(=C/c3ccc(OCCCN(C)C)cc3)[nH]c2=O)cc1` [Compound 1955, (3Z,6Z)-3,6-Di-(4-(3-dimethylaminopropoxy)benzylidene)-2,5-piperazinedionebis hydrogen succinate (1:2)] yielded a Degree of inhibition in PAI chromogenic substrate assay (6.25 μM) of 0%. Where the note is “12.5 μM”, the inhibition at 12.5 µM stood at 2%. Moreover, for the setting “25 μM”, the inhibition at 25 µM was found to be 3%. In addition, under “50 μM”, the inhibition at 50 µM is 2%. In addition, where the note is “100 μM”, the inhibition at 100 µM is 9%.
With `CN(C)CCCOc1ccc(/C=c2\[nH]c(=O)/c(=C/c3ccc(F)cc3)[nH]c2=O)cc1` [Compound 5365.HCl, (3Z,6Z)-3-(4-(3-Dimethylaminopropoxy)benzylidene)-6-(4-fluorobenzylidene)-2,5-piperazinedione], the IC50 under setting [1] turned out to be 3.3 µM.
On the same count and under the same terms, the result for `Cc1ccc(/C=c2\[nH]c(=O)/c(=C/c3ccc(OCCCN(C)C)cc3)[nH]c2=O)cc1` [Compound 5235, (3Z,6Z)-3-(4-(3-Dimethylaminopropoxy)benzylidene)-6-(4-methylbenzylidene)-2,5-piperazinedione] reads 6 µM.
`CN(C)CCCOc1ccc(/C=c2\[nH]c(=O)/c(=C/c3ccccc3[N+](=O)[O-])[nH]c2=O)cc1` [Compound 5208, (3Z,6Z)-6-(4-(3-Dimethylaminopropoxy)benzylidene)-3-(2-nitrobenzylidene)-2,5-piperazinedione]: the inhibition at 20 µM (20 μM (third part of Table 1)) was determined as 10%. For the same compound, the inhibition at 100 µM (100 μM (third part of Table 1)) is 32%.
In the case of `CN(C)CCCOc1ccc(/C=c2\[nH]c(=O)/c(=C/c3ccc([N+](=O)[O-])cc3)[nH]c2=O)cc1` [Compound 5228, (3Z,6Z)-3-(4-(3-dimethylaminopropoxy)benzylidene)-6-(4-nitrobenzylidene)-2,5-piperazinedione], the IC50 under setting [1] turned out to be 1.1 µM.
As to `CN(C)CCCOc1ccc(/C=c2\[nH]c(=O)/c(=C/c3cc([N+](=O)[O-])cc([N+](=O)[O-])c3)[nH]c2=O)cc1` [Compound 5378, (3Z,6Z)-6-(4-(3-Dimethylaminopropoxy)benzylidene)-3-(3,5-dinitrobenzylidene)-2,5-piperazinedione], the inhibition at 20 µM was 50%. Also, under “IC50, PAI chromogenic substrate assay”, the IC50 is 20 µM.
As for `CN(C)CCOc1ccccc1/C=c1\[nH]c(=O)/c(=C/c2ccccc2)[nH]c1=O` [Compound 1946, (3Z,6Z)-3-Benzylidene-6-(2-(2-dimethylaminoethoxy)benzylidene)-2,5-piperazinedione], the Degree of inhibition in PAI chromogenic substrate assay runs as follows: (12.5 μM) 1%; (25 μM) 1%; (50 μM) 1%; (100 μM) 7%.
On to `CN(C)CCCOc1ccc(/C=c2\[nH]c(=O)/c(=C/c3cccc(OC(F)(F)F)c3)[nH]c2=O)cc1` [Compound 5374, (3Z,6Z)-6-(4-(3-Dimethylaminopropoxy)benzylidene)-3-(3-trifluoromethoxybenzylidene)-2,5-piperazinedione], for which, under setting [1], the IC50 was determined as 15 µM.
With `CC(C)(C)CC(=O)Oc1ccc(/C=c2\[nH]c(=O)/c(=C/c3ccccc3)[nH]c2=O)cc1` [Compound 1889, (3Z,6Z)-6-Benzylidene-3-(4-(3,3-dimethylbutanoyloxy)benzylidene)-2,5-piperazinedione], the inhibition at 6.25 µM (6.25 μM) was found to be 0%. Further, the inhibition at 12.5 µM (12.5 μM) was 3%. Besides, the inhibition at 25 µM (25 μM) was 15%. For the same compound, where the note is “50 μM”, the inhibition at 50 µM worked out at 38%. In addition, the inhibition at 100 µM (100 μM) is 49%.
Regarding `CN(C)CCCOc1ccc(/C=c2\[nH]c(=O)/c(=C/c3ccc(C(=O)Nc4ccccc4)cc3)[nH]c2=O)cc1` [Compound 5343, 4-((3Z,6Z)-6-(4-(3-Dimethylaminopropoxy)benzylidene)-2,5-dioxo-3-piperazinylidene)methylbenzanilide], the inhibition at 20 µM (20 μM (third part of Table 1)) stood at 20%.
Turning to `CCCCCCOc1ccc(/C=c2\[nH]c(=O)/c(=C/c3ccc(OC)cc3)[nH]c2=O)cc1` [Compound 1907, (3Z,6Z)-3-(4-Hexyloxybenzylidene)-6-(4-methoxybenzylidene)-2,5-piperazinedione], the inhibition at 6.25 µM (6.25 μM) turned out to be 10%. In addition, under “12.5 μM”, the inhibition at 12.5 µM turned out to be 23%. In addition, for the setting “25 μM”, the inhibition at 25 µM is 37%. Besides, the inhibition at 50 µM (50 μM) came to 69%. In addition, the inhibition at 100 µM (100 μM) turned out to be 80%.
On to `CSc1ccc(/C=c2\[nH]c(=O)/c(=C/c3ccc(OCCCN(C)C)cc3)[nH]c2=O)cc1` [Compound 5385, (3Z,6Z)-3-(4-(3-Dimethylaminopropoxy)benzylidene)-6-(4-methylthiobenzylidene)-2,5-piperazinedione], for which, under setting [1], the half-maximal inhibitory concentration (IC50) came to 2 µM.
On to `CN(C)CCOc1cccc(/C=c2\[nH]c(=O)/c(=C/c3cccc(OCCN(C)C)c3)[nH]c2=O)c1` [Compound 1947, (3Z,6Z)-3,6-Di-(3-(2-dimethylaminoethoxy)benzylidene)-2,5-piperazinedione], for which the inhibition at 6.25 µM (6.25 μM) was 0%. For the same compound, the inhibition at 12.5 µM (12.5 μM) was found to be 1%. Under “25 μM”, the inhibition at 25 µM was found to be 1%. In addition, for the setting “50 μM”, the inhibition at 50 µM was 1%. For the same compound, the inhibition at 100 µM (100 μM) was determined as 1%.
Take `CN(C)CCCOc1ccc(/C=c2\[nH]c(=O)/c(=C/c3ccc(C(=O)NCc4ccccc4)cc3)[nH]c2=O)cc1` [Compound 5344, N-Benzyl-4-((3Z,6Z)-6-(4-(3-Dimethylaminopropoxy)benzylidene)-2,5-dioxo-3-piperazinylidene)methylbenzamide]: for the setting “20 μM (third part of Table 1)”, the inhibition at 20 µM was determined as 40%.
